In patent US20210299079A1, “MONOMETHYL FUMARATE-CARRIER CONJUGATES AND METHODS OF THEIR USE” (Flagship Pioneering Innovations V, Inc., priority 2018, published 2021):
Where a name gives a salt, the structure may show the parent alone.

How the values were obtained:
[1] = Stability of conjugates in Simulated Gastric Fluid (SGF); assay type: in vitro ADME; details: SGF pH 1.6 with pepsin, 37° C., 1 μM compound
Method: Assay 1. Stability of conjugates in Simulated Gastric Fluid (SGF). This assay was used to assess the stability of a conjugate in a stomach.
Medium was prepared by dissolving 2 g of sodium chloride in 0.6 L in ultrapure water (MilliQ®, Millipore Sigma, Darmstadt, Germany). The pH was adjusted to 1.6 with 1N hydrochloric acid, and the volume was then adjusted to 1 L with purified water.
60 mg FaSSIF powder (Biorelevant™, London, UK) were dissolved in 500 mL buffer (above). Pepsin was added (0.1 mg/mL) (Millipore Sigma, Darmstadt, Germany), and the solution was stirred. The resulting SGF media were used fresh for each experiment.
(§1) Test compounds were dissolved in DMSO stock to 1 mM. An aliquot of the DMSO stock solution was removed and diluted in the SGF Media in 15 mL falcon tubes to generate a total compound concentration of 1 μM. A 1 mL aliquot was immediately removed and diluted once with 1 volume of acetonitrile for TO timepoint. The mixture was sealed and mixed at 37° C. in an incubator. Aliquots (1 mL) were removed at regular intervals and immediately quenched by the addition of 1 volume of acetonitrile. The resulting samples were analyzed by LC/MS to determine degradation rates in SGF.

[2] = Stability of conjugates in Simulated Intestinal Fluid (SIF); assay type: in vitro ADME; details: SIF pH 6.7 with pancreatin, 37° C., 1 μM compound
Method: Assay 2. Stability of conjugates in Simulated Intestinal Fluid (SIF). This assay was used to assess the stability of a conjugate in a small intestine.
Phosphate buffer was prepared by dissolving 0.42 g of sodium hydroxide pellets and 3.95 g of monobasic sodium phosphate monohydrate and 6.19 g of sodium chloride in ultrapure water (MilliQ®, Millipore Sigma, Darmstadt, Germany). The pH was adjusted to 6.7 using aq. HCl and aq. NaOH, as necessary, and the solution was diluted with ultrapure water to produce 1 L of the pH 6.7 buffer.
112 mg FaSSIF powder (Biorelevant™, London, UK) was dissolved in 50 mL of the pH 6.7 buffer. 2 to 3 mL of the resulting solution were then added to 500 mg pancreatin (Millipore Sigma, Darmstadt, Germany). The resulting mixture was agitated by finger tapping the vessel containing the mixture until milky suspension formed. At this time, the remainder of the 50 mL FaSSiF/pH 6.7 buffer solution was added. The resulting suspension was flipped upside down 10 times to produce SIF, which was used fresh.
as §1, with “SIF media” for “SGF Media”, “produce” for “generate”, “mixture with a tested” for “total”, “agitated” for “mixed”, “rates” for “rates in SGF.”

[3] = In vitro Colonic Material Stability Assay; assay type: in vitro ADME; details: colonic material slurry in YCFAC media, anaerobic, 1 or 10 μM
Method: Assay 3. In vitro Colonic Material Stability Assay. This assay was used to assess the stability of a conjugate in a large intestine. All experiments were performed in an anaerobic chamber containing 90% nitrogen, 5% hydrogen and 5% carbon dioxide. Colonic material was resuspended as a slurry (15% w/v final concentration) in pre-reduced, anaerobically sterilized dilution blanks (Anaerobe Systems AS-908). The colonic material was then inoculated into 96 well plates containing YCFAC media (Anaerobe Systems AS-680) or other suitable media (6.7 μL slurry into 1 mL total media). Compounds or groups of compounds were added to each individual well to reach a final analyte concentration of 1 or 10 μM, and the material was mixed by pipetting. Sample was removed after set timepoints (0, 120, 240, 480, 1440, 2880 minutes after initiation of the assay), quenched with acetonitrile containing internal standard, and analyzed by LC/MS.

[4] = Gastrointestinal (GI) Exposure to Propionate (Study 1); assay type: in vivo, CD-1 mice; details: mouse; for Propionate-d3 AUClast / Propionate-d3 Tmax: single oral dose: Propionate-d3 62 mg/kg, Compound 3-d12 110 mg/kg, Compound 6-d9 91 mg/kg
Method: In order to measure propionate concentrations along the GI track, CD-1 mice were orally administered a single dose of deuterated sodium propionate, Compound 3 comprising deuterated propionate, or Compound 6 comprising deuterated propionate (Propionate-d3, Compound 3-d12, and Compound 6-d9, respectively; suspension, 1% (w/v) methyl cellulose in deionized water). The amounts of compound dosed were normalized to provide approximately equimolar amounts of […] (Propionate-d3 at 62 mg/kg, Compound 3-d12 at 110 mg/kg, and Compound 6-d9 at 91 mg/kg). […] Blood samples were collected in K2EDTA tubes and stored on wet ice no more than 30 min and then further processed to plasma. GI samples were placed into separate labeled, pre-weighted collection tubes and frozen before analysis. Brain samples were homogenized prior to analysis. Samples were subsequently worked up and analyzed by LC-MS/MS for deuterated propionate concentration. Propionate concentrations versus time for different tissues are depicted in FIGS. 4A-4H and 5A-5C.

Row | Structure (SMILES) | Assay 1 (SGF) (% Remaining @ 1 hour) [1] | Assay 2 (SIF) (% @ Remaining 4 hours) [2] | Assay 3 (% Remaining at 24 h) [3] | other results
1 | CCCC(=O)O[C@@H]1[C@@H](OC(=O)CCC)[C@H](C)O[C@H](OC(=O)/C=C/C(=O)OC)[C@@H]1OC(=O)CCC [Compound 14, Methyl ((2R,3R,4R,5S,6S)-3,4,5-tris(butyryloxy)-6-methyltetrahydro-2H-pyran-2-yl) fumarate] | C (C: >75% of the tested compound remaining) | A (A: <25% of the tested compound remaining) | C (C: >75% of the tested compound remaining) | –
2 | CCCC(=O)O[C@@H]1[C@@H](OC(=O)CCC)[C@@H](OC(=O)/C=C/C(=O)OC)OC[C@@H]1OC(=O)CCC [Compound 12, Methyl ((2R,3R,4S,5S)-3,4,5-tris(butyryloxy)tetrahydro-2H-pyran-2-yl) fumarate] | C (C: >75% of the tested compound remaining) | A (A: <25% of the tested compound remaining) | C (C: >75% of the tested compound remaining) | –
3 | CCCC(=O)O[C@@H]1[C@@H](OC(=O)CCC)[C@H](OC(=O)/C=C/C(=O)OC)OC[C@H]1OC(=O)CCC [Compound 7, Methyl ((2S,3R,4S,5R)-3,4,5-tris(butyryloxy)tetrahydro-2H-pyran-2-yl) fumarate] | C (C: >75% of the tested compound remaining) | A (A: <25% of the tested compound remaining) | C (C: >75% of the tested compound remaining) | –
4 | CCC(=O)OC[C@H]1O[C@@H](OC(=O)/C=C/C(=O)OC)[C@H](N)[C@@H](OC(=O)CC)[C@@H]1OC(=O)CC.Cl [Compound 27, (2S,3R,4R,5S,6R)-2-(((E)-4-methoxy-4-oxobut-2-enoyl)oxy)-4,5-bis(propionyloxy)-6-((propionyloxy)methyl)tetrahydro-2H-pyran-3-aminium Chloride] | – | C (C: >75% of the tested compound remaining) | B (B: 25-75% of the tested compound remaining) | –
5 | CCC(=O)OC[C@H]1O[C@@H](OC(=O)CC)[C@H](OC(=O)CC)[C@@H](OC(=O)CC)[C@H]1OC(=O)/C=C/C(=O)OC [Compound 51, 1-methyl (2R,3S,4S,5R,6S)-4,5,6-tris(propanoyloxy)-2-[(propanoyloxy)methyl]oxan-3-yl (2E)-but-2-enedioate] | C (C: >75% of the tested compound remaining) | A (A: <25% of the tested compound remaining) | – | –
6 | CCCC(=O)OC[C@H]1O[C@H](OC(=O)/C=C/C(=O)OC)[C@H](N)[C@@H](OC(=O)CCC)[C@@H]1OC(=O)CCC.Cl [Compound 28, (2R,3R,4R,5S,6R)-4,5-bis(butyryloxy)-6-((butyryloxy)methyl)-2-(((E)-4-methoxy-4-oxobut-2-enoyl)oxy)tetrahydro-2H-pyran-3-aminium Chloride] | – | B (B: 25-75% of the tested compound remaining) | B (B: 25-75% of the tested compound remaining) | –
7 | CCC(=O)O[C@@H]1[C@@H](OC(=O)CC)[C@@H](OC(=O)/C=C/C(=O)OC)OC[C@H]1OC(=O)CC [Compound 16, Methyl ((2R,3R,4S,5R)-3,4,5-tris(propionyloxy)tetrahydro-2H-pyran-2-yl) fumarate] | – | – | C (C: >75% of the tested compound remaining) | –
8 | COC(=O)/C=C/C(=O)Oc1ccc(-c2oc3cc(OC(=O)/C=C/C(=O)OC)cc(OC(=O)/C=C/C(=O)OC)c3c(=O)c2O)cc1 [Compound 56, O4-[4-[3-hydroxy-5,7-bis[[(E)-4-methoxy-4-oxo-but-2-enoyl]oxy]-4-oxo-chromen-2-yl]phenyl] O1-methyl (E)-but-2-enedioate] | C (C: >75% of the tested compound remaining) | A (A: <25% of the tested compound remaining) | – | –
9 | CCCC(=O)O[C@H]1[C@@H](OC(=O)CCC)[C@@H](CO)O[C@H](OC(=O)/C=C/C(=O)OC)[C@@H]1OC(=O)CCC [Compound 45, 1-methyl (2R,3R,4S,5S,6R)-3,4,5-tris(butanoyloxy)-6-(hydroxymethyl)oxan-2-yl (2E)-but-2-enedioate] | C (C: >75% of the tested compound remaining) | A (A: <25% of the tested compound remaining) | – | –
10 | CCC(=O)OC[C@H]1O[C@H](OC(=O)/C=C/C(=O)OC)[C@H](OC(=O)CC)[C@@H](OC(=O)CC)[C@H]1O [Compound 49, (2R,3R,4S,5S,6R)-5-hydroxy-3,4-bis(propanoyloxy)-6-[(propanoyloxy)methyl]oxan-2-yl 1-methyl (2E)-but-2-enedioate] | C (C: >75% of the tested compound remaining) | A (A: <25% of the tested compound remaining) | – | –
11 | [2H]C([2H])([2H])CC(=O)[O-].[Na+] [Propionate-d3, sodium propionate-d3, reference compound] | – | – | – | Propionate-d3 AUClast ([4]; Brain): below quantitative; Propionate-d3 Tmax ([4]; Brain): 15 min; Propionate-d3 AUClast ([4]; Cecum): 76 nmol·h/g; Propionate-d3 Tmax ([4]; Cecum): 15 min; Propionate-d3 AUClast ([4]; Distal Colon): 31 nmol·h/g; Propionate-d3 Tmax ([4]; Distal Colon): 15 min; Propionate-d3 AUClast ([4]; Distal Intestine): 6.6 nmol·h/g; Propionate-d3 Tmax ([4]; Distal Intestine): 30 min; Propionate-d3 AUClast ([4]; Proximal Colon): 46 nmol·h/g; Propionate-d3 Tmax ([4]; Proximal Colon): 15 min; Propionate-d3 AUClast ([4]; Proximal Intestine): 13 nmol·h/g; Propionate-d3 Tmax ([4]; Proximal Intestine): 15 min; Propionate-d3 AUClast ([4]; Stomach): 7020 nmol·h/g; Propionate-d3 Tmax ([4]; Stomach): 15 min; region where the highest concentrations (Cmax) of propionate-d3 were observed ([4]; single oral dose, GI tissues): stomach
12 | CCC(=O)OC[C@H]1O[C@@H](OC(=O)/C=C/C(=O)OC)[C@H](OC(=O)CC)[C@@H](OC(=O)CC)[C@H]1O [Compound 47, (2S,3R,4S,5S,6R)-5-hydroxy-3,4-bis(propanoyloxy)-6-[(propanoyloxy)methyl]oxan-2-yl 1-methyl (2E)-but-2-enedioate] | C (C: >75% of the tested compound remaining) | A (A: <25% of the tested compound remaining) | – | –
